The text below walks through data of PubChem BioAssay AID1626 (SRMLSC, 2009).

Each structure is given as a SMILES string.

In the assay the test system is M. tuberculosis H37Rv growth inhibition. The experiment in a line: M. tuberculosis H37Rv growth inhibitors, H37Rv strain (AID 1626). As to conditions: for IC90: measured here: IC90 against H37Rv; for CC50: measured here: Vero cell cytotoxicity.

For orientation: IC50 means the point on the concentration scale where inhibition reaches its midpoint. A word on the IC90: it is the concentration at which the effect reaches the 90% level. Lower therefore signals greater potency. Regarding `N#CC(C#N)=c1ccc2c(c1)N1C(c3ccccc3)=CC(c3ccccc3)C3CCCCC31N=2` (configuration not stated), the 50% inhibitory concentration (IC50) was 28.3 µM and the IC90 is greater than 100 µM.
Regarding `O=C(O)c1ccc(Nc2nc(-c3cc4ccccc4oc3=O)cs2)cc1O`, the IC50 was 20.1 µM and the IC90 is greater than 100 µM.
A word on the CC50: it is the concentration giving 50% cytotoxicity. A high value points to better tolerance by the cells. As for `COc1cc(-c2nc3ccc4ccccc4c3c3c2CCC3)cc(OC)c1O`, the IC50 is 13.1 µM, the IC90 came to 18.8 µM and the CC50 is greater than 40 µM.
For `CC(C)COCC(CN(Cc1ccccc1)c1ccccc1)N1CCCC1` (configuration not stated), the IC50 is 14.8 µM, the IC90 was determined as 20.1 µM and the CC50 is greater than 40 µM.
In the case of `CCN1CCN(c2cc3c(cc2F)c(=O)c(C(=O)O)cn3C2CC2)CC1`, the IC50 was less than 0.391 µM and the IC90 is less than 0.391 µM.
Take `O=c1oc2ccccc2nc1/C=C(\O)c1ccc(Br)cc1`: the IC50 is 3.56 µM and the IC90 was greater than 100 µM.
The compound `O=C(Nc1nc2ccccc2s1)C1c2ccccc2Oc2ccccc21` displayed an IC90 greater than 100 µM and a cytotoxic concentration (CC50) greater than 40 µM.
As to `c1nc2n(n1)C1=C(CCCC1)C1(CCCCC1)N2`, the IC50 was 18.2 µM and the IC90 is greater than 100 µM.
`Cc1ccc2nc(SCC(=O)Nc3ccc4c(c3)CCC4)[nH]c2c1` yielded an IC90 greater than 100 µM.
Same read-out and setting: to `Nc1ccccc1Nc1cc(-c2ccccc2)[nH]n1` belongs greater than 100 µM.
For the compound `Clc1cccc2c1Sc1ccccc1CC2N1CCNCC1` (configuration not stated), the IC50 is 3.12 µM, the IC90 was found to be 6.58 µM and the CC50 turned out to be 11.2 µM.
For `O=C(COC(=O)c1c2c(nc3ccccc13)/C(=C/c1cccc([N+](=O)[O-])c1)CCC2)NC1CCS(=O)(=O)C1` (configuration not stated), in that order: 6.99 µM, greater than 100 µM and 34 µM.
For `O=C(CSc1ccc([N+](=O)[O-])cn1)Nc1ccc2c(c1)OCCO2`, the IC50 was 51.3 µM and the 90% effect concentration (IC90) was greater than 100 µM.
For `CC(C)Nc1ccc(Nc2ccnc3cc4ccccc4cc23)cc1`, the IC50 was 5.31 µM, the 90% effect concentration (IC90) came out at 9.7 µM and the CC50 turned out to be 3.3 µM.
In turn, `O=C(CSC1=NCCS1)Nc1ccc2ccccc2c1` showed a concentration for an effect of 90% (IC90) greater than 100 µM.
`O=Cc1ccc2noc(-c3ccc(F)cc3)c2c1` gave an IC90 greater than 100 µM.
Consider `O=C(c1cnc(N2CCN(c3ccccn3)CC2)c2ccccc12)N1CCN(c2cccc(Cl)c2)CC1`, for which the IC50 was 8.67 µM, the IC90 was greater than 100 µM and the CC50 is greater than 40 µM.
Take `COC(=O)COc1ccc2c(=O)c(Oc3ccccc3)c(C)oc2c1`: the IC50 is 2.13 µM and the IC90 was determined as 10 µM.
As for `COc1cccc2c1nc(C)c1cc(C)oc12`, the IC50 is 5.65 µM, the concentration for an effect of 90% (IC90) was greater than 100 µM and the CC50 is greater than 40 µM.
The corresponding values for `CC(C)c1cc(NC(=O)CCl)on1` are 13.7 µM, 32.6 µM and 16.7 µM.
Regarding `COC(=O)COc1cccc(NC(=O)COc2ccccc2)c1`, the IC50 was 2.72 µM and the IC90 worked out at 4 µM.
For `CCn1c(NC(=O)C2CCCCC2)nc2ccccc21`, the IC50 was 1.86 µM, the IC90 was greater than 100 µM and the CC50 was greater than 40 µM.
The corresponding values for `Cn1c(N=Nc2ccccc2)nc2ccccc21` are 1.04 µM, 1.89 µM and 16.1 µM.
In the case of `Cc1ccc(-c2c[n+](CC(=O)Nc3nc(-c4ccc(F)cc4)cs3)c3n2CCC3)cc1`, the half-inhibitory concentration (IC50) is 4.87 µM and the 90% effect concentration (IC90) amounted to 7.09 µM.
For `CCCOC(=O)c1ccc(NC(=O)C2C3C=CC(O3)C2C(=O)O)cc1` (configuration not stated), in that order: 35.2 µM and greater than 100 µM.
The compound `COc1ccc(OCc2nn3c(-c4cccc(OC)c4)nnc3s2)cc1` returned an IC90 greater than 100 µM.
For `COc1ccc(C(CCN2CCCCC2)c2c(OC)cc(OC)c3c(-c4ccccc4)cc(=O)oc23)cc1` (configuration not stated), the IC50 was 7.16 µM, the IC90 worked out at 10.9 µM and the 50% cytotoxic concentration (CC50) was found to be 16 µM.
`CCCn1c(NC(=O)c2cccc(C)c2C)nc2ccccc21`: the IC50 was 1 µM, the IC90 came to 3.63 µM and the CC50 was 24.7 µM.
For `O=[N+]([O-])c1ccc(N=Nc2c(Cl)cc(O)cc2Cl)cc1`, in that order: 1.64 µM, 2.41 µM and 5.17 µM.
With `CCOC(=O)C1=C(c2ccccc2)NC(N)=NC1c1ccc(OCc2ccc(Cl)cc2)c(OC)c1` (configuration not stated), the IC50 was 4.55 µM, the IC90 was 5.57 µM and the CC50 is 22.6 µM.
For `O=[N+]([O-])c1cc(S(=O)(=O)C(F)(F)F)ccc1Sc1nc2ccccc2s1`, in that order: 0.699 µM, 0.781 µM and 12.6 µM.
In the case of `CCOc1ccc(N=c2scc(-c3ccccc3)n2CCO)cc1`, the half-maximal inhibitory concentration (IC50) was 35.1 µM and the IC90 is greater than 100 µM.
As for `CC(C)C1N=C(c2ccc3c(c2)OCO3)CC(c2ccccc2O)N1` (configuration not stated), the IC50 was 10.6 µM, the IC90 turned out to be 14.3 µM and the CC50 was determined as 26.8 µM.
Consider `CCOC(=O)c1cc(C)nc(Sc2ccc(C)cc2)c1C#N`, for which the IC50 was 12.7 µM, the IC90 is greater than 100 µM and the CC50 is greater than 40 µM.
As to `CCOC(=O)c1ccc(NC(=O)CSc2nnc(COc3ccccc3OC)n2C)cc1`, the IC90 was greater than 100 µM.
In the case of `Cc1ccc(-c2csc(NC(=O)CSc3nc4ccccc4c(=O)n3CCCN(C)C)n2)cc1`, the IC50 was 7.67 µM, the IC90 was 9.52 µM and the CC50 was 12 µM.
The corresponding values for `CCOC(=O)c1c(NC(=O)COc2ccccc2)sc2c1CC(C)(C)NC2(C)C` are 20.1 µM, 26.8 µM and greater than 40 µM.
The corresponding values for `CCOC(=O)c1ccc2ncc(C(=O)OCC)c(Nc3ccc(N4CCOCC4)cc3)c2c1` are 10.9 µM, 22.7 µM and greater than 40 µM.
`COc1ccc2[nH]c(=O)c(CN(C(=O)NC3CCCCC3)C3CCCCC3)cc2c1` showed an IC90 greater than 100 µM and a cytotoxic concentration (CC50) greater than 40 µM.
`Cc1ccc2c(c1)c1c3n2CCN=C3CCC1`: the IC50 was 7.43 µM and the IC90 amounted to 15.8 µM.
With `O=C(Nc1nnc(-c2ccccn2)o1)c1cccc(Br)c1`, the IC50 was 12.4 µM, the IC90 was greater than 100 µM and the CC50 was greater than 40 µM.
For `Cc1ccc(Nc2cc(C)nn2-c2nc(C)cc(C)n2)cc1`, the IC50 was less than 0.195 µM, the IC90 was 56.1 µM and the CC50 is 13.5 µM.
`Cc1c([N+](=O)[O-])cc(C(=O)NCc2ccc(F)cc2)cc1[N+](=O)[O-]`: the IC50 is less than 0.195 µM and the IC90 is greater than 100 µM.
With `CCCN(CCC)CC(O)Cn1cc(/C=C/C(=O)c2ccccc2)c2ccccc21` (configuration not stated), the IC50 was 1.5 µM, the IC90 came out at 1.66 µM and the CC50 is 20.3 µM.
With `COc1ccccc1C(=O)OCC(=O)Nc1ccc(Cl)cn1`, the concentration for half-maximal inhibition (IC50) is 22.6 µM, the IC90 was greater than 100 µM and the 50% cytotoxic concentration (CC50) is greater than 40 µM.
In turn, `CCOC(=O)CNC(=O)CSc1ncnc2c1nnn2-c1ccc(F)cc1` registered an IC90 greater than 100 µM.
On to `O=C(Nc1ncc(Cc2ccc(C(F)(F)F)cc2)s1)c1ccc(-c2cccc([N+](=O)[O-])c2)o1`, for which the IC50 is 60.2 µM, the IC90 is greater than 100 µM and the CC50 is greater than 40 µM.
Regarding `Cc1oc2ccc(OC(=O)c3cccs3)cc2c1C(=O)OC(C)C`, the concentration for half-maximal inhibition (IC50) was 2.84 µM and the IC90 turned out to be 21.3 µM.
Regarding `O=C(Oc1ccc2cc(Br)ccc2c1)c1cccnc1`, the concentration for half-maximal inhibition (IC50) is 1.38 µM, the IC90 was greater than 100 µM and the 50% cytotoxic concentration (CC50) was greater than 40 µM.
The corresponding values for `CCOc1ccc(Nc2nc(N)nc(CCl)n2)cc1` are 23.2 µM, greater than 100 µM and 0.194 µM.
For `Cc1ccc(S(=O)(=O)NCCC(=O)Nc2ccc(C)c(Cl)c2)cc1C`, in that order: 19.8 µM, greater than 100 µM and greater than 40 µM.
Compound `COc1cc(CNc2ccc(N3CCN(C(C)=O)CC3)cc2)ccc1OCc1ccc(F)cc1` returned a CC50 greater than 40 µM.
`Nc1c2c(nc3ccc(Br)cc13)N(C1CCCCC1)CC2`: the IC50 was 8.28 µM, the IC90 came to 11.1 µM and the CC50 was greater than 40 µM.
With `Cc1ccc(C(=O)Oc2cccc(NC(=O)c3ccccc3)c2)cc1C`, the IC50 was 7.76 µM and the 90% effect concentration (IC90) is 12.9 µM.
As to `COc1cc(/C=N/NC(=Nc2ccc(C)cc2)c2nc3ccccc3s2)ccc1O`, the IC90 is greater than 100 µM and the half-maximal cytotoxic concentration (CC50) was greater than 40 µM.
As for `O=C(Nc1ccc(-c2csnn2)cc1)C(Cl)(Cl)Cl`, the IC50 was less than 0.195 µM and the IC90 was greater than 100 µM.
For `Nc1ccccc1Nc1ccccc1`, in that order: less than 0.195 µM and 0.973 µM.
For `Cc1cc(C)n(-c2nc(Nc3ccccc3C)nc(-n3nc(C)cc3C)n2)n1`, in that order: 88.4 µM and greater than 100 µM.
With `CN(C)CCNC=C(C(=O)Nc1ccc(Cl)cc1Cl)C(=O)Nc1ccc(Cl)cc1Cl`, the IC50 is 2.45 µM, the IC90 was determined as 3.44 µM and the CC50 was found to be 18.1 µM.
For `CCC(=O)Nc1cccc(C(=O)/C=C/c2ccccc2)c1`, in that order: 22.1 µM, 28.2 µM and 10.7 µM.
`Cc1cc(C)cc(N=c2c([N+](=O)[O-])nn(-c3cccc(Cl)c3)n2O)c1`: the IC50 was 4.89 µM, the IC90 was determined as 9.8 µM and the CC50 was greater than 40 µM.
For `CN(C)CCNc1nc2sc3c(c2c(=O)n1CCc1ccccc1)CCCCC3`, in that order: 8.57 µM, 11.1 µM and 12 µM.
In the case of `Clc1ccc(-c2nnc3sc(Cc4cccs4)nn23)cc1`, the IC50 was 19.6 µM and the IC90 is greater than 100 µM.
With `CCC/C(O)=C1\C(=O)CCCC1=NCCc1c(C)[nH]c2ccc(C)cc12`, the IC90 was greater than 100 µM.
For the compound `CCCCOC(=O)c1ccc(NC(=O)C(=O)NCCN(C)C)cc1`, the concentration for half-maximal inhibition (IC50) was 14.9 µM and the concentration for an effect of 90% (IC90) was greater than 100 µM.
As for `O=C(Nc1nnc(-c2ccc3c(c2)OCCO3)o1)C1CCCCC1`, the IC90 was greater than 100 µM.
`Cc1cc(NC(=O)c2ccc(C)s2)n(-c2nc3ccccc3[nH]2)n1` had a CC50 greater than 40 µM.
As for `Cc1ccc(NC(=O)COC(=O)CC2CCCC2)cc1Cl`, the IC90 was greater than 100 µM.
